US12077503B2, “Substituted cyclic amides and their use as herbicides” (FMC CORPORATION, priority 2015, dated 2024)

Columns and labels:
Assay type in all cases: in vivo
Kochia (Kochia scoparia) [1] = experiment: Test A preemergence; settings: Bassia scoparia, pre-emergence, 240 h; for pest or weed control at 500 g/ha: 500 g ai/ha, Preemergence, visual injury vs untreated controls after approximately 10 d, read-out: Kochia plant response rating (0 to 100 scale where 0 is no effect and 100 is complete control)
Method in brief: (§1)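 In a loam soil and sand blend, planted seeds got a preemergence directed soil spray, and young plants at the one- to two-leaf stage, 2–10 cm high, got a postemergence application; ~10 d greenhouse hold; injury rated visually, 0 = none, 100 = complete control.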

[2] = test system: barnyardgrass (Echinochloa crus-galli); experiment: Test A preemergence; settings: Echinochloa crus-galli, pre-emergence, 240 h; for pest or weed control at 125 g/ha: 125 g ai/ha, preemergence, visual rating after approx. 10 d, 0 to 100 scale where 0 is no effect and 100 is complete control, read-out: Plant response rating, Barnyardgrass; for pest or weed control at 500 g/ha: 500 g ai/ha, Preemergence, visual injury vs untreated controls after approximately 10 d, read-out: Barnyardgrass plant response rating (0 to 100 scale where 0 is no effect and 100 is complete control)
Method in brief: as §1

[3] = test system: giant foxtail (Setaria faberii); experiment: Test A preemergence; settings: Setaria faberi, pre-emergence, 240 h; for pest or weed control at 125 g/ha: 125 g ai/ha, preemergence, visual rating after approx. 10 d, 0 to 100 scale where 0 is no effect and 100 is complete control, read-out: Plant response rating, Foxtail, Giant; for pest or weed control at 500 g/ha: 500 g ai/ha, Preemergence, visual injury vs untreated controls after approximately 10 d, read-out: Foxtail, Giant plant response rating (0 to 100 scale where 0 is no effect and 100 is complete control)
Method in brief: as §1

[4] = test system: ragweed (common ragweed, Ambrosia elatior); experiment: Test A preemergence; settings: Ambrosia artemisiifolia, pre-emergence, 240 h; for pest or weed control at 125 g/ha: 125 g ai/ha, preemergence, visual rating after approx. 10 d, 0 to 100 scale where 0 is no effect and 100 is complete control, read-out: Plant response rating, Ragweed; for pest or weed control at 500 g/ha: 500 g ai/ha, Preemergence, visual injury vs untreated controls after approximately 10 d, read-out: Ragweed plant response rating (0 to 100 scale where 0 is no effect and 100 is complete control)
Method in brief: as §1

[5] = test system: ryegrass, Italian (Italian ryegrass, Lolium multiflorum); experiment: Test A preemergence; settings: Lolium multiflorum, pre-emergence, 240 h; for pest or weed control at 125 g/ha: 125 g ai/ha, preemergence, visual rating after approx. 10 d, 0 to 100 scale where 0 is no effect and 100 is complete control, read-out: Plant response rating, Ryegrass, Italian; for pest or weed control at 500 g/ha: 500 g ai/ha, Preemergence, visual injury vs untreated controls after approximately 10 d, read-out: Ryegrass, Italian plant response rating (0 to 100 scale where 0 is no effect and 100 is complete control)
Method in brief: as §1

[6] = test system: Galium (catchweed bedstraw, Galium aparine); experiment: Test A postemergence; settings: Galium, post-emergence, 240 h, 125 g ai/ha, postemergence; visual injury after approximately 10 d; 0 to 100 scale (0 no effect, 100 complete control); read-out: Plant response rating, Galium
Method in brief: as §1

Kochia (Kochia scoparia) [7] = experiment: Test A postemergence; settings: Bassia scoparia, post-emergence, 240 h, 125 g ai/ha, postemergence; visual injury after approximately 10 d; 0 to 100 scale (0 no effect, 100 complete control); read-out: Plant response rating, Kochia
Method in brief: as §1

[8] = test system: barnyardgrass (Echinochloa crus-galli); experiment: Test A postemergence; settings: Echinochloa crus-galli, post-emergence, 240 h, 125 g ai/ha, postemergence; visual injury after approximately 10 d; 0 to 100 scale (0 no effect, 100 complete control); read-out: Plant response rating, Barnyardgrass
Method in brief: as §1

[9] = test system: blackgrass (Alopecurus myosuroides); experiment: Test A postemergence; settings: Alopecurus myosuroides, post-emergence, 240 h, 125 g ai/ha, postemergence; visual injury after approximately 10 d; 0 to 100 scale (0 no effect, 100 complete control); read-out: Plant response rating, Blackgrass
Method in brief: as §1

corn (Zea mays) = experiment: Test A postemergence; settings: Zea mays, post-emergence, 240 h, 125 g ai/ha, postemergence; visual injury after approximately 10 d; 0 to 100 scale (0 no effect, 100 complete control)
Method in brief: as §1

[10] = test system: giant foxtail (Setaria faberii); experiment: Test A postemergence; settings: Setaria faberi, post-emergence, 240 h, 125 g ai/ha, postemergence; visual injury after approximately 10 d; 0 to 100 scale (0 no effect, 100 complete control); read-out: Plant response rating, Foxtail, Giant
Method in brief: as §1

[11] = test system: pigweed (Amaranthus retroflexus); experiment: Test A postemergence; settings: Amaranthus retroflexus, post-emergence, 240 h, 125 g ai/ha, postemergence; visual injury after approximately 10 d; 0 to 100 scale (0 no effect, 100 complete control); read-out: Plant response rating, Pigweed
Method in brief: as §1

[12] = test system: ragweed (common ragweed, Ambrosia elatior); experiment: Test A postemergence; settings: Ambrosia artemisiifolia, post-emergence, 240 h, 125 g ai/ha, postemergence; visual injury after approximately 10 d; 0 to 100 scale (0 no effect, 100 complete control); read-out: Plant response rating, Ragweed
Method in brief: as §1

[13] = test system: ryegrass, Italian (Italian ryegrass, Lolium multiflorum); experiment: Test A postemergence; settings: Lolium multiflorum, post-emergence, 240 h, 125 g ai/ha, postemergence; visual injury after approximately 10 d; 0 to 100 scale (0 no effect, 100 complete control); read-out: Plant response rating, Ryegrass, Italian
Method in brief: as §1

`Cc1cc([C@H]2CNC(=O)[C@@H]2C(=O)Nc2ccccc2F)ccc1Cl` [Compound 789] was tested, and the pest or weed control at 500 g/ha (Kochia (Kochia scoparia) [1]) was 30%, the pest or weed control at 125 g/ha [2] was 90% and the pest or weed control at 500 g/ha [2] was 90%. It also gave a pest or weed control at 125 g/ha [3] of 60%, a pest or weed control at 500 g/ha [3] of 90% and a pest or weed control at 125 g/ha [4] of 0%. It also gave a pest or weed control at 500 g/ha [4] of 0%, a pest or weed control at 125 g/ha [5] of 0% and a pest or weed control at 500 g/ha [5] of 0%. For the same compound, the pest or weed control at 125 g/ha [6] was 40%, the pest or weed control at 125 g/ha (Kochia (Kochia scoparia) [7]) was 0% and the pest or weed control at 125 g/ha [8] was 80%. It also gave a pest or weed control at 125 g/ha [9] of 40%, a Corn plant response rating (crop injury, 0 = no effect, 100 = complete kill) at 125 g/ha (corn (Zea mays)) of 20% and a pest or weed control at 125 g/ha [10] of 30%. It also gave a pest or weed control at 125 g/ha [11] of 0%, a pest or weed control at 125 g/ha [12] of 0% and a pest or weed control at 125 g/ha [13] of 0%.
With `Cc1cc([C@H]2CNC(=O)[C@@H]2C(=O)Nc2cccc(F)c2F)ccc1Cl` [Compound 790] the pest or weed control at 125 g/ha (Kochia (Kochia scoparia) [1]; 125 g ai/ha, preemergence, visual rating after approx. 10 d, 0 to 100 scale where 0 is no effect and 100 is complete control, read-out: Plant response rating, Kochia) was 70%, the pest or weed control at 500 g/ha (Kochia (Kochia scoparia) [1]) was 80% and the pest or weed control at 125 g/ha [2] was 90%. The pest or weed control at 500 g/ha [2] was 90%, the pest or weed control at 125 g/ha [3] was 70% and the pest or weed control at 500 g/ha [3] was 90%. For the same compound, the pest or weed control at 125 g/ha [4] was 20%, the pest or weed control at 500 g/ha [4] was 60% and the pest or weed control at 125 g/ha [5] was 30%. The pest or weed control at 500 g/ha [5] was 70%, the pest or weed control at 125 g/ha [6] was 50% and the pest or weed control at 125 g/ha (Kochia (Kochia scoparia) [7]) was 40%. The pest or weed control at 125 g/ha [8] was 80%, the pest or weed control at 125 g/ha [9] was 40% and the Corn plant response rating (crop injury, 0 = no effect, 100 = complete kill) at 125 g/ha (corn (Zea mays)) was 30%. For the same compound, the pest or weed control at 125 g/ha [10] was 50%, the pest or weed control at 125 g/ha [11] was 20% and the pest or weed control at 125 g/ha [12] was 30%. The pest or weed control at 125 g/ha [13] was 0%.
